Source: publication PMC8508710, “Biochemical Characterization of 13-Lipoxygenases of Arabidopsis thaliana” (International Journal of Molecular Sciences, 2021)
Several values for one entry are separate records, joined by “and”; a condition that tells them apart may be missing. Identical values can stand only once.

Experiments:
[1] = biological target: T1, LOX3 (Arabidopsis thaliana, UniProt Q9LNR3); experiment: LOX3 activity, spectrophotometric (conjugated diene formation at 234 nm); conditions: substrate specificity; 31 µM PUFA, 4 µg 13-LOX, 50 mM Tris-HCl pH 7.2; LeA = 100%
T1 sequence (Q9LNR3 71-919): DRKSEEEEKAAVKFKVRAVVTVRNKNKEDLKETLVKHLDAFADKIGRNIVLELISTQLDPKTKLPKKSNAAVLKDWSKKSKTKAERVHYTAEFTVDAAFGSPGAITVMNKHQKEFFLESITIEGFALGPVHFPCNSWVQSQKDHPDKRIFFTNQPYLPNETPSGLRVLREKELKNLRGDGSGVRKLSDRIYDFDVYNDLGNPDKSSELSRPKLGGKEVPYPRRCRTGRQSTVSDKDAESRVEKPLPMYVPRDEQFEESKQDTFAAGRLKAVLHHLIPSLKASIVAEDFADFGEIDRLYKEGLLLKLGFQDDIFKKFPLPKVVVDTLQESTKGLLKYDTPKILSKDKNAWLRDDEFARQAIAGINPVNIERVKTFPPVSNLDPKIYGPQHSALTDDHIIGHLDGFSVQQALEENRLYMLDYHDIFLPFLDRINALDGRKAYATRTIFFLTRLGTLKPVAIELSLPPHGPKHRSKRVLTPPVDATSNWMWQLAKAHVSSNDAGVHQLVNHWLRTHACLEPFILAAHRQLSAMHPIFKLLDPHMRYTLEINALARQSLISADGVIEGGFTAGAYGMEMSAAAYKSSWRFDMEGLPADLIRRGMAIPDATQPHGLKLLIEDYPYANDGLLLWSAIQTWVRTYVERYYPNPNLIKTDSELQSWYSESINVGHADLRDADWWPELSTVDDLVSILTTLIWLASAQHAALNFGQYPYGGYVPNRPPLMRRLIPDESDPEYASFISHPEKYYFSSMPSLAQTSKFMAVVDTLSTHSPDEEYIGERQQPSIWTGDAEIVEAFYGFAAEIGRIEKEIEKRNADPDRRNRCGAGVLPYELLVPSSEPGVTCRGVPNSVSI

[2] = biological target: T2, LOX4 (Arabidopsis thaliana, UniProt Q9FNX8); experiment: LOX4 activity, spectrophotometric (conjugated diene formation at 234 nm); conditions: substrate specificity; 31 µM PUFA, 4 µg 13-LOX, 50 mM Tris-HCl pH 7.2; LeA = 100%
T2 sequence (Q9FNX8 71-926): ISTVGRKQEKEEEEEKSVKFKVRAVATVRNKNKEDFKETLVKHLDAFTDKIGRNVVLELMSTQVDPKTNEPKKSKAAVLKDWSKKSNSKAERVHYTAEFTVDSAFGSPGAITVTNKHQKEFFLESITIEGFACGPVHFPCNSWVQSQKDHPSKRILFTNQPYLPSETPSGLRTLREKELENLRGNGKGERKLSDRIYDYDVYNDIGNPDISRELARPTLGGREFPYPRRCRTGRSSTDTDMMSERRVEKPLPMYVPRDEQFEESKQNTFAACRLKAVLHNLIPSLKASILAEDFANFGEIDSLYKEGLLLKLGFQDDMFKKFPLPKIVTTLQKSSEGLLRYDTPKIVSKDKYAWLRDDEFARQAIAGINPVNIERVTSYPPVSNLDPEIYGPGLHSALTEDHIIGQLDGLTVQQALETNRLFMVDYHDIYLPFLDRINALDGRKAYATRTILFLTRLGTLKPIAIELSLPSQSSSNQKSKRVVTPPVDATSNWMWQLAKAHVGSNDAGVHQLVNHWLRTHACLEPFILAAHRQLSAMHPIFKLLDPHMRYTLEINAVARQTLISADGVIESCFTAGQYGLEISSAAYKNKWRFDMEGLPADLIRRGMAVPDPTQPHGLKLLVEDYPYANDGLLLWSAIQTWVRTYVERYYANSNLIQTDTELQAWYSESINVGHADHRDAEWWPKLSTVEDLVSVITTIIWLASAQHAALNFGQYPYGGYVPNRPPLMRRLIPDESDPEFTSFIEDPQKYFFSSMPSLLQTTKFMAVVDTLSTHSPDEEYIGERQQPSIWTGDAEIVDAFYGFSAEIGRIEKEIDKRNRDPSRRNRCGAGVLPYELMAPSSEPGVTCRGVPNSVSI

[3] = biological target: T3, LOX2 (Arabidopsis thaliana, UniProt P38418); experiment: LOX2 activity, spectrophotometric (conjugated diene formation at 234 nm); conditions: substrate specificity; 31 µM PUFA, 4 µg 13-LOX, 50 mM Tris-HCl pH 7.2; LeA = 100%
T3 sequence (P38418 71-896): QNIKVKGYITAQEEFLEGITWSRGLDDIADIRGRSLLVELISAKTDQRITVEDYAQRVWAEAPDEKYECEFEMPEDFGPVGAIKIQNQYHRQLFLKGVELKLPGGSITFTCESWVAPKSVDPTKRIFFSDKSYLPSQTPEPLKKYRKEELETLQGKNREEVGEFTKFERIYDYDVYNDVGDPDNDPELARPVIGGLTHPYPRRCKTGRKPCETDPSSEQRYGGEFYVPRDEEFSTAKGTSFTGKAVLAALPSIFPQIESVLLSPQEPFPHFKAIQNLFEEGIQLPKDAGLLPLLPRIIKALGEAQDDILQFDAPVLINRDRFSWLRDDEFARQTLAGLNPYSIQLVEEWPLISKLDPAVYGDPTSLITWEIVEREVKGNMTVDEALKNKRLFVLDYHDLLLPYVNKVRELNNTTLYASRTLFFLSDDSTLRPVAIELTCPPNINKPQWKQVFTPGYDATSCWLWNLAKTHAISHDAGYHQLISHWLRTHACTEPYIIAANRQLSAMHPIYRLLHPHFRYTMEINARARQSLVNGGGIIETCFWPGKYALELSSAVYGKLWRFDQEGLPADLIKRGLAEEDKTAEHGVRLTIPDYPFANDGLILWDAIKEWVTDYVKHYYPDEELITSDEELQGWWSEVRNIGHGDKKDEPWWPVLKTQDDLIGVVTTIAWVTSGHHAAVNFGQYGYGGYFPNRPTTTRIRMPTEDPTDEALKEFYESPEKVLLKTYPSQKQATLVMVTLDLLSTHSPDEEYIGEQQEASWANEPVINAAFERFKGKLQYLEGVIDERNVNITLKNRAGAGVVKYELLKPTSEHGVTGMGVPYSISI

[4] = biological target: T3, LOX2; parameters: made in house; host or cells: E. coli Nico21(DE3), pET15b; method as in PMID 18949503; conditions: cited from earlier work
[5] = biological target: T4, LOX6 (Arabidopsis thaliana, UniProt Q9CAG3); experiment: LOX6 activity, spectrophotometric (conjugated diene formation at 234 nm); conditions: substrate specificity; 31 µM PUFA, 4 µg 13-LOX, 50 mM Tris-HCl pH 7.2; LeA = 100%
T4 sequence (Q9CAG3 41-917): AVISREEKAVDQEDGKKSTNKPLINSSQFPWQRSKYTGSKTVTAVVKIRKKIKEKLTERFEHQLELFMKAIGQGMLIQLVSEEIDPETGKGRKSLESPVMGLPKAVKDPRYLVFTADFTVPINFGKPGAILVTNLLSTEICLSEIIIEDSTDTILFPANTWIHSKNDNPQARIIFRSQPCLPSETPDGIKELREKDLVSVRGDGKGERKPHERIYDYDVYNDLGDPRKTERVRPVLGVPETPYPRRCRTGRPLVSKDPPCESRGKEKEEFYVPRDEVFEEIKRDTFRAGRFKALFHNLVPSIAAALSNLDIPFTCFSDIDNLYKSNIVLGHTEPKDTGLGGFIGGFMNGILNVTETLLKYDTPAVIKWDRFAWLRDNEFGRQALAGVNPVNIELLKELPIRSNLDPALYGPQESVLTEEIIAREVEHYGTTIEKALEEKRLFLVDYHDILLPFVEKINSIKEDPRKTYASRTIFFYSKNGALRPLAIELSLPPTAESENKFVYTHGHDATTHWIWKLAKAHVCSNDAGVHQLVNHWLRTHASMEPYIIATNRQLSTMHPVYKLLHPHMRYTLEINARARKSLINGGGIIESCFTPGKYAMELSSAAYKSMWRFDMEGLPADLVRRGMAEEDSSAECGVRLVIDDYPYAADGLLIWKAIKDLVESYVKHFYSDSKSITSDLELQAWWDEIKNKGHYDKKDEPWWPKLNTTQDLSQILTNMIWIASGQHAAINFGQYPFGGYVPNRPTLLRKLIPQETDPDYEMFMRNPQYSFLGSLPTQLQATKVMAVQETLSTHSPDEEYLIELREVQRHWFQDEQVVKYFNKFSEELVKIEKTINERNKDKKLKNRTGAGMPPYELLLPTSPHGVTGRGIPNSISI

[6] = biological target: T1, LOX3; experiment: LOX3 activity, oxygen electrode (polarography); format: biochemical; parameters: made in house; host or cells: E. coli Nico21(DE3), pET15b; conditions: 100 µM metal salt, LeA 30 µM in 20 mM HEPES pH 8.0, oxygen consumption vs control
[7] = biological target: T2, LOX4; experiment: LOX4 activity, oxygen electrode (polarography); format: biochemical; parameters: made in house; host or cells: E. coli Nico21(DE3), pET15b; conditions: 100 µM metal salt, LeA 30 µM in 20 mM HEPES pH 8.0, oxygen consumption vs control
[8] = biological target: T4, LOX6; experiment: LOX6 activity, oxygen electrode (polarography); format: biochemical; parameters: made in house; host or cells: E. coli Nico21(DE3), pEXP5-NT/TOPO; conditions: 100 µM metal salt, LeA 30 µM in 20 mM HEPES pH 8.0, oxygen consumption vs control
[9] = biological target: T3, LOX2; experiment: LOX2 activity, oxygen electrode (polarography); format: biochemical; parameters: made in house; host or cells: E. coli Nico21(DE3), pET15b; conditions: 100 µM metal salt, LeA 30 µM in 20 mM HEPES pH 8.0, oxygen consumption vs control

SMILES	Relative Activity (%) LOX3 [1] [%]	Relative Activity (%) LOX4 [2] [%]	Relative Activity (%) LOX2 [3]	LOX2 activity with PUFA (relative) [4]	Relative Activity (%) LOX6 [5] [%]	Relative Activity (%) LOX3 [6]	Relative Activity (%) LOX3 ([6]; listed as Cu^2+)	Relative Activity (%) LOX4 [7]	Relative Activity (%) LOX4 ([7]; listed as Cu^2+)	Relative Activity (%) LOX6 [8]	Relative Activity (%) LOX6 ([8]; listed as Cu^2+)	Relative Activity (%) LOX2 [9] [%]	Relative Activity (%) LOX2 ([9]; listed as Cu^2+)
CCCCC/C=C\C/C=C\C/C=C\C/C=C\CCCC(=O)O [ARA, arachidonic acid]	5 ± 1	4 ± 1	50% and 50 ± 4%	~ 15%	8 ± 3								
[Cl][Cu][Cl] [CuCl2]						no activity	abolished	no activity	abolished	no activity	abolished	50 ± 20	strongly decreased
CC/C=C\C/C=C\C/C=C\C/C=C\C/C=C\C/C=C\CCC(=O)O [DHA, docosahexaenoic acid]	7 ± 1	8 ± 1	56 ± 3%		31 ± 3								
